Measurements taken from US10591485B2, “Peptide tags for fluorescent labelling of proteins” (UNIVERSITY OF OTTAWA, priority 2015, dated 2020).
“Also recorded” adds a separate entry of the source. Blank lines part the entries; values can stand above or below the compound they belong to. Where a SMILES comes first, the peptide text is derived from it.

Tests used:
[1] = pH-rate profile of MBP-dC10 mutants with dansyl-dimaleimide fluorogen, pH 7.50-9.00; format: physicochemical; settings: from horizontal displacement of best fit lines of pH-rate profile, FIG. 8
Description: A pH range between 7.50 and 9.00 was explored to determine the dependence of the second order rate constant on pH. Only several mutants from libraries II and III were chosen for this pH study: Triple mutants containing lysine and arginine (black line), triple mutants containing histidine and lysine or arginine (light grey line), double mutants (dark grey line) and parent dC10 (dashed line).
Considering the relative reactivity of the members of all three mutant libraries, additional studies were undertaken to attempt to quantify the effect of positively charged residues on the acidity of the cysteine residue thiol groups. […]
Libraries I, II and III were assayed using a plate reader: briefly, in a reaction scale of 200 μL, 50 μM MBP-dC10 (or variants) and 50 μM dansyl-dM10 1 were mixed in HEPES 50 mM pH 7.5 buffer in the presence of TCEP 1 mM. Fluorescence increase was followed at 28° C. long after completion of the reaction (2 hours) using the Synergy™ H4 Hybrid Multi-Mode Microplate Reader (BioTek, Winooski, Vt., United States) plate reader at 515 nm, upon excitation at 330 nm of the dansyl fluorophore of 1. Second order reaction constants were determined using the initial slope and the final plateau of each kinetic curve. […] Fluorogenic reactions were performed in a plate reader as described above, in duplicate.

[2] = Kinetics of addition of fluorogen 1 to MBP-dC10 histidine mutants, Cary Eclipse fluorimeter, 20° C.; format: biochemical; settings: fluorogen 1, 20° C., FIG. 4
Description: To start, we used fluorogen 1.
Reactivity of each MBP-dC10 variant was assessed by determining the second order rate constant of the fluorogenic labelling reaction with a dansyl-dimaleimide fluorogenic molecule, referred to as dansyl-dM10 1 (FIG. 11). Dansyl-dM10 was synthesized as described (Caron, K. et al., Org. Biomol. Chem. 9: 185-197, 2011). Initial kinetic studies performed on MBP-dC10 histidine mutants S2H, R9H, A7H and S2H-A17H were done at the scale of 500 μL in the established conditions described below, using a Cary Eclipse Fluorimeter (Varian, Inc., Mississauga, Ontario, Canada) at 20° C.

[3] = In vitro reactivity of dC10 and dC10* with fluorogen 3; format: biochemical; settings: fluorogen 3, 50 μM equimolar, 28° C., FIG. 13
Description: (§1) Second order rate constant ratios are shown for fluorogen 3 (grey), and fluorogen 4 (black). Ratios were obtained by normalizing all rate constants to the rate constant of parent MBP-dC10. Absolute values of second order rate constants in M^−1min^−1 are shown for each fluorogen and dC10 or dC10*, and were obtained using equimolar concentration of 50 μM of fluorogen and test protein, at 28° C. Results were obtained at least in duplicate.
(§2) To extend the results shown above with fluorogens 1 and 2, we tested whether the labelling of dC10* (dC10-A3KA16RA17K) with other coumarin fluorogens would also show a kinetic advantage compared to dC10.

[4] = In vitro reactivity of dC10 and dC10* with fluorogen 4; format: biochemical; settings: fluorogen 4, 50 μM equimolar, 28° C., FIG. 13
Description: as §1, §2

[5] = Fluorogenic addition reaction kinetics of MBP-dC10 libraries I, II and III with dansyl-dM10 fluorogen 1, plate reader, 28° C.; format: biochemical; settings: for reactivity of single mutants A17X (second order rate constant), in words: fluorogen 1, 50 μM equimolar, pH 7.5, 28° C., FIGS. 6 and 7; for increase in reactivity towards a dimaleimide fluorogen, triple mutants: fluorogen 1, relative to parent dC10, FIG. 10
Description: Library I with point mutants at position A17 is represented in dark grey, library II with double mutants A16-A17 is represented in light grey, and library III with triple mutants A3-A16-A17 is represented in black. The rate constant for parent MBP-dC10 is represented in white. All measurements were performed at least in duplicate. The reactivity of each single mutant of MBP-dC10 was evaluated through their reaction with dansyl-dM10 fluorogen 1 (Caron, K. et al., Org. Biomol. Chem., 9: 185-197, 2011), commonly used for test purposes. Equimolar concentrations of 50 μM of fluorogen 1 and MBP-dC10 variant were used in pH 7.5 buffer HEPES 50 mM, supplemented with 1 mM of TCEP reducing agent to reduce disulfide bonds that could form during protein purification or storage. […] Progress curves of the fluorogenic addition reaction were acquired with a plate reader that allowed us to study a large number of samples at the same time. Since the dansyl fluorophore is sensitive to its environment, the reaction of each MBP-dC10 variant led to an end point of slightly different fluorescence intensity. We used a simple second order kinetic model A+B→C where reactants A and B were used in equimolar concentrations. The product C is the only fluorescent species in the milieu and its appearance can be directly followed by increase of fluorescence. Use of this model implies that the second thiol addition is extremely fast due to its intramolecular character, and that the second order kinetic constant k2 depends exclusively on the first thiol addition. This reasonable approximation allowed us to evaluate very simply the overall dC10 reactivity modulated by the presence of stabilizing residues in the proximity of cysteines C6 and C13. Reactivity of each MBP-dC10 variant was assessed by determining the second order rate constant of the fluorogenic labelling reaction with a dansyl-dimaleimide fluorogenic molecule, referred to as dansyl-dM10 1 (FIG. 11). […] Biomol. Chem. 9: 185-197, 2011). Initial kinetic studies performed on MBP-dC10 histidine mutants S2H, R9H, A7H and S2H-A17H were done at the scale of 500 μL in the established conditions described below, using a Cary Eclipse Fluorimeter (Varian, Inc., Mississauga, Ontario, Canada) at 20° C. […] Libraries I, II and III were assayed using a plate reader: briefly, in a reaction scale of 200 μL, 50 μM MBP-dC10 (or variants) and 50 μM dansyl-dM10 1 were mixed in HEPES 50 mM pH 7.5 buffer in the presence of TCEP 1 mM. Fluorescence increase was followed at 28° C. long after completion of the reaction (2 hours) using the Synergy™ H4 Hybrid Multi-Mode Microplate Reader (BioTek, Winooski, Vt., United States) plate reader at 515 nm, upon excitation at 330 nm of the dansyl fluorophore of 1. Second order reaction constants were determined using the initial slope and the final plateau of each kinetic curve. All reactions were performed in duplicate to quadruplicate. For pH dependent kinetics, MBP-dC10 variants were dialysed into a buffer of desired pH, containing 50 mM of buffering salt (pH 7.50-8.00: HEPES; pH 8.25-8.75: Tris-HCl; pH 9.00: CHES) and 1 mM TCEP, overnight at 4° C., with gentle stirring. Fluorogenic reactions were performed in a plate reader as described above, in duplicate.

pKa lower than that of the parent dC10 sequence [1]: 0.70 units
Compound: CC(C)C[C@H](N)C(=O)N[C@@H](CO)C(=O)N[C@@H](CCCCN)C(=O)N[C@@H](C)C(=O)N[C@@H](CCC(=O)O)C(=O)N[C@@H](CS)C(=O)N[C@@H](C)C(=O)N[C@@H](C)C(=O)N[C@@H](CCCNC(=N)N)C(=O)N[C@@H](CCC(=O)O)C(=O)N[C@@H](C)C(=O)N[C@@H](C)C(=O)N[C@@H](CS)C(=O)N[C@@H](CCCNC(=N)N)C(=O)N[C@@H](CCC(=O)O)C(=O)N[C@@H](CCCNC(=N)N)C(=O)N[C@@H](CCCCN)C(=O)N[C@@H](C)C(=O)N[C@@H](CCCNC(=N)N)C(=O)N[C@@H](C)C(=O)NCC(=O)NCC(=O)N[C@@H](CCCCN)C(=O)O [dC10-A3KA16RA17K] (H-LSKAECAAREAACRERKARAGGK-OH; N-terminus and C-terminus assumed)

Compound: L1HAAECAAREAACREAAARAGGK23 (LHAAECAAREAACREAAARAGGK) [dC10-S2H]
reactivity (second order kinetic constant) compared with parent dC10 [2]: did not appear to be more reactive than dC10

Compound: L1HAAECAAREAACREAHARAGGK23 (LHAAECAAREAACREAHARAGGK) [dC10-S2HA17H]
reactivity (second order kinetic constant) compared with parent dC10 [2]: more reactive than the parent dC10

Compound: L1SAAECAAHEAACREAAARAGGK23 (LSAAECAAHEAACREAAARAGGK) [dC10-R9H]
reactivity (second order kinetic constant) compared with parent dC10 [2]: did not appear to be more reactive than dC10

Compound: L1SAAECAAREAACREAAARAGGK23 (LSAAECAAREAACREAAARAGGK) [dC10, previously described parent dicysteine alpha-helical peptide tag]
rate enhancement compared to dC10 [3]: 4 fold | rate enhancement compared to dC10 [4]: 2 fold

Compound: L1SAAECAAREAACREAHARAGGK23 (LSAAECAAREAACREAHARAGGK) [dC10-A17H]
reactivity of single mutants A17X (second order rate constant), in words [5]: reacts faster than the parent dC10 peptide tag; also recorded: does not react as fast as the A17K mutant

Compound: L1SAAECAAREAACREAKARAGGK23 (LSAAECAAREAACREAKARAGGK) [dC10-A17K]
reactivity of single mutants A17X (second order rate constant), in words [5]: best dC10 single mutant

Compound: L1SAAECAAREAACREHKARAGGK23 (LSAAECAAREAACREHKARAGGK) [dC10-A16HA17K]
reactivity compared among double mutants A16X-A17K ([5]; fluorogen 1, FIG. 10): not as reactive as double mutants A16K-A17K and A16R-A17K

Compound: L1SAAECHAREAACREAAARAGGK23 (LSAAECHAREAACREAAARAGGK) [dC10-A7H]
reactivity (second order kinetic constant) compared with parent dC10 [2]: did not appear to be more reactive than dC10

Compound: L1SKAECAAREAACREKKARAGGK23 (LSKAECAAREAACREKKARAGGK) [dC10-A3KA16KA17K]
increase in reactivity towards a dimaleimide fluorogen, triple mutants [5]: ~10 fold

Compound: L1SRAECAAREAACREKKARAGGK23 (LSRAECAAREAACREKKARAGGK) [dC10-A3RA16KA17K]
increase in reactivity towards a dimaleimide fluorogen, triple mutants [5]: ~10 fold

Compound: L1SRAECAAREAACRERKARAGGK23 (LSRAECAAREAACRERKARAGGK) [dC10-A3RA16RA17K]
increase in reactivity towards a dimaleimide fluorogen, triple mutants [5]: ~10 fold
